The term AC50 denotes the concentration at which the activity in the assay is half-maximal.

Test [1] concerns the target Neuronal acetylcholine receptor subunit alpha-4 (Homo sapiens, UniProt P43681).
The target of test [2] is T1, Prostaglandin G/H synthase 1 (Rattus norvegicus, UniProt Q63921).
T1 sequence (Q63921 whole entry): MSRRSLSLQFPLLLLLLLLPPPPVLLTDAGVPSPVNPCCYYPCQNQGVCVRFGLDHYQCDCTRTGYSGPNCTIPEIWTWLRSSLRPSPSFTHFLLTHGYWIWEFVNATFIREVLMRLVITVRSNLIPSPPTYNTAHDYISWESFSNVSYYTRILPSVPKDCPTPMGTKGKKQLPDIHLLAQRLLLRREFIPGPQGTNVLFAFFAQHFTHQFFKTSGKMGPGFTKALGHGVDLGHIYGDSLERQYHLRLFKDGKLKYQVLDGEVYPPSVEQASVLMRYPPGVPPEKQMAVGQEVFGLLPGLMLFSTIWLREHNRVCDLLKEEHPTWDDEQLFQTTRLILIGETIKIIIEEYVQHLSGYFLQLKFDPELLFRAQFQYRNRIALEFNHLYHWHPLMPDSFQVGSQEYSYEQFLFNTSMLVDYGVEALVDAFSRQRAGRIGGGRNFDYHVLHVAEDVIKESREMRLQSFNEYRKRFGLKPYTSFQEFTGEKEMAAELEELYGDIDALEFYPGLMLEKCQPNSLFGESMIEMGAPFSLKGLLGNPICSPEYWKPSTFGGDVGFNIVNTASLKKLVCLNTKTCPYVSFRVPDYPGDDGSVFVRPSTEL
Format: functional.

Another test addresses Melanocortin receptor 3 (Homo sapiens, UniProt P41968).
Another test deals with Histamine H3 receptor (Homo sapiens, UniProt Q9Y5N1).
Test [3] concerns the target Beta-1 adrenergic receptor (Homo sapiens, UniProt P08588). Format: functional.
A further test has as its target T2, Adenosine receptor A1 (Homo sapiens, UniProt P30542).
T2 sequence (P30542 whole entry): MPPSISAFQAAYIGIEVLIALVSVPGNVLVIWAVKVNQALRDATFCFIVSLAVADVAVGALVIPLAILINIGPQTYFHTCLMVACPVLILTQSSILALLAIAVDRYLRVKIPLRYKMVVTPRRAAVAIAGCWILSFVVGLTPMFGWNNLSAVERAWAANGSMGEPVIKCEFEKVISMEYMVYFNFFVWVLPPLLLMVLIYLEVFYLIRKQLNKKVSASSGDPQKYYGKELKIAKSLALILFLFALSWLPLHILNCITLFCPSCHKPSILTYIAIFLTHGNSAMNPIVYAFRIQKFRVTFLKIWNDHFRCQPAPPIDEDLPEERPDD

Test [4] has as its target Voltage-dependent L-type calcium channel subunit alpha-1C (Rattus norvegicus, UniProt P22002). Format: functional.
The target of test [5] is Gamma-aminobutyric acid receptor subunit alpha-1 (Rattus norvegicus, UniProt P62813). The format is functional.
Test [6] deals with T3, 5-hydroxytryptamine receptor 1A (Homo sapiens, UniProt P08908).
T3 sequence (P08908 whole entry): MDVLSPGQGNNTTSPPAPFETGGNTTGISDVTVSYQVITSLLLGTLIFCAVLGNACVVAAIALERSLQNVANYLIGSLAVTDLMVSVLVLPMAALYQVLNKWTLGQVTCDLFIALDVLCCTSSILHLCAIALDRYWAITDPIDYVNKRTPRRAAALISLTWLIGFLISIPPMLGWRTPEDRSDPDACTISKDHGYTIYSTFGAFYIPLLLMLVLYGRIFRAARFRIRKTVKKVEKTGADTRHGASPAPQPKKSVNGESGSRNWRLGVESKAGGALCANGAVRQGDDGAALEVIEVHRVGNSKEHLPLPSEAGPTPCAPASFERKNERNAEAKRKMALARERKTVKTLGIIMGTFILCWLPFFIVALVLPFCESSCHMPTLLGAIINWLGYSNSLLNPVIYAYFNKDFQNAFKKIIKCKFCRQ
Format: functional, cell-based.

Test [7] addresses 5-hydroxytryptamine receptor 2B (Homo sapiens, UniProt P41595). Format: functional, cell-based.
The target in test [8] is Beta-2 adrenergic receptor (Homo sapiens, UniProt P07550).
The target in test [9] is Delta-type opioid receptor (Homo sapiens, UniProt P41143).
The target in test [10] is Muscarinic acetylcholine receptor M3 (Homo sapiens, UniProt P20309).
For test [11], the target named is T4, Alpha-1A adrenergic receptor (Homo sapiens, UniProt P35348).
T4 sequence (P35348 whole entry): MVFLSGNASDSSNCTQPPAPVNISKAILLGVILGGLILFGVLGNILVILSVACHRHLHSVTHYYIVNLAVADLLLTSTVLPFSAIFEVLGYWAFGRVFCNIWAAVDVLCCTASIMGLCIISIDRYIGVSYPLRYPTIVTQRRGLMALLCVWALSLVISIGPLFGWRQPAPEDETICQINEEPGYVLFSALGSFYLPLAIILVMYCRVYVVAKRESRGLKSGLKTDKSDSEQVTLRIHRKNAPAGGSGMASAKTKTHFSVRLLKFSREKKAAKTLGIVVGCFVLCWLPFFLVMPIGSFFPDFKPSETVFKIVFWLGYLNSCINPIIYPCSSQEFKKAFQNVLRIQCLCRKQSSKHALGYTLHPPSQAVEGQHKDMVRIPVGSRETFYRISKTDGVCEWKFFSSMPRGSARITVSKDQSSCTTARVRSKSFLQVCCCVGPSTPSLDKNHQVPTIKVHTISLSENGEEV
Format: functional, cell-based.

Test [12] deals with T5, Alpha-2B adrenergic receptor (Homo sapiens, UniProt P18089).
T5 sequence (P18089 whole entry): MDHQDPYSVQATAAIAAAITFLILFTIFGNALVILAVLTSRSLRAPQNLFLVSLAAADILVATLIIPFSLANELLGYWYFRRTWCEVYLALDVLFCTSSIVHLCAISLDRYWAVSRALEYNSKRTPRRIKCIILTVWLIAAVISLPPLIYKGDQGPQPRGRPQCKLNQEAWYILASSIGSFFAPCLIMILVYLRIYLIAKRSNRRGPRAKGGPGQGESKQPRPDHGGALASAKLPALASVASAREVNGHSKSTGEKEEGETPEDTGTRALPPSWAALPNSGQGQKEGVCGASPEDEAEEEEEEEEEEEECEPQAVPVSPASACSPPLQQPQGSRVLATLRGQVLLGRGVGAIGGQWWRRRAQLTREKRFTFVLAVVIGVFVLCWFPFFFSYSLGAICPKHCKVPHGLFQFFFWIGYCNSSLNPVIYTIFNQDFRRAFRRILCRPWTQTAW

SMILES strings stand for the structures. Some results are limits rather than exact numbers.
Note: assay procedure not described here.

Chain of Muscarinic acetylcholine receptor M3 (P20309 whole entry): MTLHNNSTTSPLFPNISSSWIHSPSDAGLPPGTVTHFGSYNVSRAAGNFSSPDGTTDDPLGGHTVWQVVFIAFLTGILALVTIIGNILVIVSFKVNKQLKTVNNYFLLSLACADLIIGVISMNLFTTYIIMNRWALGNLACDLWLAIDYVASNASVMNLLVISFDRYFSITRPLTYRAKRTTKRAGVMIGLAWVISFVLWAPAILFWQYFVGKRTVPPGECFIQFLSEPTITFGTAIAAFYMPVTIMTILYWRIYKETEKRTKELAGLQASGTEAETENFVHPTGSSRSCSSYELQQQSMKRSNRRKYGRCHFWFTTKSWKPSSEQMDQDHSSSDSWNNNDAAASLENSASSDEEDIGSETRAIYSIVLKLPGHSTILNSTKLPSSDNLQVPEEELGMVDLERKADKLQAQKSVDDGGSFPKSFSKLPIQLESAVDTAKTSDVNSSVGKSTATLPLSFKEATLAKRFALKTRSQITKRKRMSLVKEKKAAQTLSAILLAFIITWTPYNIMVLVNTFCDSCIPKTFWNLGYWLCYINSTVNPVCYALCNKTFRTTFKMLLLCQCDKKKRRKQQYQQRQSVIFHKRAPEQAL
Chain of Histamine H3 receptor (Q9Y5N1 whole entry): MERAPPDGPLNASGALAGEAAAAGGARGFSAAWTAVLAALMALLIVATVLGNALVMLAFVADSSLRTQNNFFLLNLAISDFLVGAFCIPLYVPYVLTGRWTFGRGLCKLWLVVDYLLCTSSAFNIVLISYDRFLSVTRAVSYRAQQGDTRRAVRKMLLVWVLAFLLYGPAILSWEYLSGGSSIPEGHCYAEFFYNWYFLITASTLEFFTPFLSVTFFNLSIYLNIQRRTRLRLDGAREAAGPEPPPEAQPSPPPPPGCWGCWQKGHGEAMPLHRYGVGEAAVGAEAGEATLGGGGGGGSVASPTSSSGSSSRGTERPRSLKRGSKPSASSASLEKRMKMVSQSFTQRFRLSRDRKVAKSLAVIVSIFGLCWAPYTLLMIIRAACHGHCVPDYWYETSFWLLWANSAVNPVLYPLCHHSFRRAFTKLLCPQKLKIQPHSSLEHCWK
Chain of Gamma-aminobutyric acid receptor subunit alpha-1 (P62813 whole entry): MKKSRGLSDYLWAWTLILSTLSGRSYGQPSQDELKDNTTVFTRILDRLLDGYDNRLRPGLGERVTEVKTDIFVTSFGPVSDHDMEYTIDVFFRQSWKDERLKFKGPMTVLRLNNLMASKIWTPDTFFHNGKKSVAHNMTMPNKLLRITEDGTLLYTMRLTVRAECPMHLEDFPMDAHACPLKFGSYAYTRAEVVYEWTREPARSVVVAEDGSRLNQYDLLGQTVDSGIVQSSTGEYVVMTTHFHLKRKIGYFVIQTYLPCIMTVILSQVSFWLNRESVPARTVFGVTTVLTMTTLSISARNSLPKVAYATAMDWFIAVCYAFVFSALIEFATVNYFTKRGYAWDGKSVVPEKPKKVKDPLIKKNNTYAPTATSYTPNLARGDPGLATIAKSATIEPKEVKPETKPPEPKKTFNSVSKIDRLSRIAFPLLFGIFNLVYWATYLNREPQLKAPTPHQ
Chain of 5-hydroxytryptamine receptor 2B (P41595 whole entry): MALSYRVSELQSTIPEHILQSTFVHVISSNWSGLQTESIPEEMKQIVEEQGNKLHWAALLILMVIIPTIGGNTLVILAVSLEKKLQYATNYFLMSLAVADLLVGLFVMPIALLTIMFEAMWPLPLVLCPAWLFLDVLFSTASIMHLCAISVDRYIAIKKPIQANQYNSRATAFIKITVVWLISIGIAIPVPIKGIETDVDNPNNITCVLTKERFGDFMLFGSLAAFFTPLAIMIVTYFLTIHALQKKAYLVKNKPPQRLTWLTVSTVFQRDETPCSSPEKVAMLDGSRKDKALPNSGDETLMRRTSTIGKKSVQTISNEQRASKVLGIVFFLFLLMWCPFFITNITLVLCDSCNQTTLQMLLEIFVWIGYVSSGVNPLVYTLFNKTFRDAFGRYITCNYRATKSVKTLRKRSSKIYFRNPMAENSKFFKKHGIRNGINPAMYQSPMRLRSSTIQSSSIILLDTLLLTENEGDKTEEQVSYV
Chain of Delta-type opioid receptor (P41143 whole entry): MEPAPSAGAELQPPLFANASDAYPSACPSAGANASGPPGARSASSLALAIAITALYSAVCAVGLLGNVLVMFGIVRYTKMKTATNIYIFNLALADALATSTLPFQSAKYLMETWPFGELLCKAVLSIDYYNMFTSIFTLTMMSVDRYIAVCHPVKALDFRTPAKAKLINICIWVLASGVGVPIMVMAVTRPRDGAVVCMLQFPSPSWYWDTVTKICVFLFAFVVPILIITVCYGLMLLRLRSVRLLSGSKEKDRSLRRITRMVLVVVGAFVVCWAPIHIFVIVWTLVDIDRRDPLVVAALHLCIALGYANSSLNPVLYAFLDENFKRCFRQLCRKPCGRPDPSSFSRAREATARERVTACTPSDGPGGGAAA
Chain of Neuronal acetylcholine receptor subunit alpha-4 (P43681 whole entry): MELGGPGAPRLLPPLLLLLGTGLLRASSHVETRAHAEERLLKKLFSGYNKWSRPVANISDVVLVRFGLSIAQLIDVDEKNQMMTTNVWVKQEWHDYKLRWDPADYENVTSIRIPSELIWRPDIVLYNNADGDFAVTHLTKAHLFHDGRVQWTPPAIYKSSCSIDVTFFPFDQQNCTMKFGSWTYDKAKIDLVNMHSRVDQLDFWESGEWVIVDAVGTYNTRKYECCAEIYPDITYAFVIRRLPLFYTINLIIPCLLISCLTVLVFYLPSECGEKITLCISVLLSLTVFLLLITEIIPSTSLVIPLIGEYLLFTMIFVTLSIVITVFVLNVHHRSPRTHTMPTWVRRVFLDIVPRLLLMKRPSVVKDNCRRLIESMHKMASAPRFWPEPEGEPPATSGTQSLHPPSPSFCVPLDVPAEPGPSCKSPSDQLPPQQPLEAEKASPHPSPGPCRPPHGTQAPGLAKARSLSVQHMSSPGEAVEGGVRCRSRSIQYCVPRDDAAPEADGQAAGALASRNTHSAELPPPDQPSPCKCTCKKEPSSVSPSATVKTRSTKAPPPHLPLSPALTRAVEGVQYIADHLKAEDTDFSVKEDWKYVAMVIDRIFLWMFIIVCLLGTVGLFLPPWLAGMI
Chain of Beta-2 adrenergic receptor (P07550 whole entry): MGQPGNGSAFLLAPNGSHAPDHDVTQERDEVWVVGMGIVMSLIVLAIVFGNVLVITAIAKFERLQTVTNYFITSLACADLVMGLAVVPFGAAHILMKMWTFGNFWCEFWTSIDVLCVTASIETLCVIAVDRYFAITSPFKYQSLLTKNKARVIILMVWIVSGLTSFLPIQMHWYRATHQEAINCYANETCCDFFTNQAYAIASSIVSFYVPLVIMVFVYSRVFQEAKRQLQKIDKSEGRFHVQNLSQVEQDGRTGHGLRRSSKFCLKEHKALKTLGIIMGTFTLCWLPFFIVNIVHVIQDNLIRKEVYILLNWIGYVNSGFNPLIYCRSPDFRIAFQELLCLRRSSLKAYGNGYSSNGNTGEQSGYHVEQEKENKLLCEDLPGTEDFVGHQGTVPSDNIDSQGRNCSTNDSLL
Chain of Melanocortin receptor 3 (P41968 whole entry): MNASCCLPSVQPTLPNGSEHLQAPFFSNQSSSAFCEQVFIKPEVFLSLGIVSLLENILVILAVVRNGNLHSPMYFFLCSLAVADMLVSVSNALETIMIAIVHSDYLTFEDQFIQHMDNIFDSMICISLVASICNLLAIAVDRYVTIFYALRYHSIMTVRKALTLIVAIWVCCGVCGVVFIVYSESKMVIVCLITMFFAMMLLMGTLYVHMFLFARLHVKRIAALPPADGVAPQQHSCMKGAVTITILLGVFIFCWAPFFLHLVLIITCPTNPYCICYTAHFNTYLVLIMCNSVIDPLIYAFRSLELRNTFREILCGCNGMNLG
Chain of Beta-1 adrenergic receptor (P08588 whole entry): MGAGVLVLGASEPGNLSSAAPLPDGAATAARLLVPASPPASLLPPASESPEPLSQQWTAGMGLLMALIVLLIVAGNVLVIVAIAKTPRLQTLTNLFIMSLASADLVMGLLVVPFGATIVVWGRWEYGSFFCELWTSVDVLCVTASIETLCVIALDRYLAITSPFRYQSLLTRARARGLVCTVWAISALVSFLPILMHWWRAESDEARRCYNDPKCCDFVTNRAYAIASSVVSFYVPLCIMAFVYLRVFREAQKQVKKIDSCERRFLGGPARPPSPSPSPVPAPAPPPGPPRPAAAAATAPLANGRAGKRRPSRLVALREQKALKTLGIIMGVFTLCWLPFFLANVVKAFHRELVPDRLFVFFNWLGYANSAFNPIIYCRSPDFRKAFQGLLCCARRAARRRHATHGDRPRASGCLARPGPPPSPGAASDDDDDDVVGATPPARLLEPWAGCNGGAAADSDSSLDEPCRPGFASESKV

Take `CCC(CC)(CC(=O)Nc1cccc(/C=C/c2nc(C3CCC3)cs2)c1)C(=O)O`: the AC50 in test [1] was > 30 µM; in test [2] it was > 30 µM; on Melanocortin receptor 3, > 30 µM; on Histamine H3 receptor it was > 30 µM; in [3] it was 14 µM; at Adenosine receptor A1, > 30 µM.

For `CCCC1O[C@@H]2C[C@H]3[C@@H]4CCC5=CC(=O)C=C[C@]5(C)[C@H]4[C@@H](O)C[C@]3(C)[C@]2(C(=O)CO)O1` (some centres not stated) [BUDESONIDE], the AC50 (in test [4]; in test [5]; in test [1]; in [2]; in test [6]; on Melanocortin receptor 3) was > 10 µM each time. Moreover, the AC50 was > 10 µM on Histamine H3 receptor; > 10 µM in test [7]; > 10 µM in test [3]; > 10 µM in test [8]; > 30 µM in test [9]; > 10 µM at Adenosine receptor A1.

Consider `C=CCN1C[C@H](C(=O)N(CCCN(C)C)C(=O)NCC)C[C@@H]2c3cccc4[nH]cc(c34)C[C@H]21` [CABERGOLINE], for which the AC50 was > 10 µM in test [4]; > 10 µM in test [5]; > 10 µM in [1]; > 10 µM in test [2]; 0.162 µM in test [6]; > 10 µM at Melanocortin receptor 3. Moreover, the AC50 was > 30 µM in test [10]; 0.189 µM in test [7]; > 10 µM in test [3]; > 10 µM in [8]; 0.599 µM in test [11]; > 30 µM in [9]. The AC50 on Adenosine receptor A1 is > 10 µM.

For the molecule `NC1CCN(c2c(F)cc3c(=O)c(C(=O)O)cn(C4CC4)c3c2Cl)C1` (configuration not stated) [CLINAFLOXACIN], the AC50 in test [10] stood at 250 µM; in test [9], 18 µM.

Consider `CCOc1ccc(Cc2cc([C@@H]3O[C@H](CO)[C@@H](O)[C@H](O)[C@H]3O)ccc2Cl)cc1` [DAPAGLIFLOZIN], for which the AC50 in test [4] is > 10 µM; in [5] it was > 10 µM; in test [1], > 10 µM; in test [2], > 30 µM; in [12], > 10 µM; at Melanocortin receptor 3 it was > 30 µM. In addition, the AC50 in [10] is > 30 µM; on Histamine H3 receptor it was > 10 µM; in test [3] it was > 10 µM; in test [8] it was > 10 µM; in test [9], > 30 µM; at Adenosine receptor A1 it was > 30 µM.

Turning to `CN(C)CC/C=C1\c2ccccc2CSc2ccccc21` [DOTHIEPIN], the AC50 in test [4] was 24 µM; in test [5], > 30 µM; in test [1], > 30 µM; in [2], > 30 µM; in [6], > 30 µM; in test [12], 1.3 µM. The AC50 on Melanocortin receptor 3 is 25 µM; on Histamine H3 receptor it was 29 µM; in test [7], > 30 µM; in [3], > 30 µM; in test [8], > 30 µM; in test [11], > 30 µM. The AC50 (in test [9]; at Adenosine receptor A1) was > 30 µM in each case.

As for `CC[C@H]1CN2CCc3cc(OC)c(OC)cc3[C@@H]2C[C@@H]1C[C@H]1NCCc2cc(OC)c(OC)cc21` [EMETINE], the AC50 (in [5]; in test [1]; in test [2]; in [6]; on Melanocortin receptor 3; at Histamine H3 receptor) was > 30 µM in each case. For the same molecule, the AC50 (in test [7]; in [3]; in [8]; in [11]; in test [9]; at Adenosine receptor A1) was > 30 µM throughout.

Turning to `O=[N+]([O-])O[C@@H]1CO[C@H]2[C@@H]1OC[C@@H]2O` [ISOSORBIDE MONONITRATE], the AC50 is > 10 µM in test [4]; > 10 µM in test [5]; > 30 µM in [2]; > 10 µM in test [6]; > 10 µM in test [12]; > 30 µM at Melanocortin receptor 3. The AC50 in test [10] was > 10 µM; at Histamine H3 receptor it was > 10 µM; in [7] it was > 10 µM; in test [3] it was > 10 µM; in test [8] it was > 10 µM; in [9] it was > 30 µM. The AC50 on Adenosine receptor A1 is > 30 µM.

As to `Cc1cc(C)c(NC(=O)CN(CC(=O)O)CC(=O)O)c(C)c1Br` [MEBROFENIN], the AC50 in test [5], in test [12], in test [10], in [7], in [11] and in [9] was > 30 µM each time.

Turning to `C[N+]1(CCCCC[N+]2(C)CCCC2)CCCC1` [PENTOLINIUM], the AC50 in test [1] is > 30 µM.

Turning to `COc1cc2nc(N3CCN(C(=O)c4ccco4)CC3)nc(N)c2cc1OC` [PRAZOSIN], the AC50 in [4] is > 10 µM; in [5] it was > 10 µM; in test [1], > 10 µM; in test [2], > 30 µM; on Melanocortin receptor 3 it was > 30 µM; on Histamine H3 receptor, > 10 µM. In addition, the AC50 is > 10 µM in test [7]; > 10 µM in test [3]; > 10 µM in [8]; > 10 µM in test [9]; > 30 µM on Adenosine receptor A1.

For `O=[N+]([O-])c1cn2c(n1)OC[C@@H](OCc1ccc(OC(F)(F)F)cc1)C2` [PRETOMANID], the AC50 was > 10 µM in [4]; > 10 µM in test [5]; > 10 µM in test [12]; > 30 µM on Melanocortin receptor 3; > 10 µM in [10]; > 10 µM in test [3]. In addition, the AC50 in test [8] was > 10 µM; in test [9], > 10 µM; at Adenosine receptor A1, > 30 µM.

Consider `Cc1oc(=O)oc1CN1CCN(c2cc3c(cc2F)c(=O)c(C(=O)O)c2n3C(C)S2)CC1` (configuration not stated) [PRULIFLOXACIN], for which the AC50 in test [5], in test [12], in [10], in test [7], in [11] and in [9] was > 30 µM in each case.
